Measured values taken from ChEMBL document CHEMBL4680288, “Cholesteryl ester transfer protein (CETP) inhibitors based on cyclic urea, bicyclic urea and bicyclic sulfamide cores” (Bioorg Med Chem Lett, 2021).
pIC50: −log10 of the molar value.

Tests used:
[1] = molecular target: T1, Cholesteryl ester transfer protein (Homo sapiens, UniProt P11597); assay: Inhibition of recombinant CETP (unknown origin) assessed as inhibition of transfer of [3H] cholesteryl oleate or [3H] triolein between exogenous LDL and HDL in 2% human serum
T1 sequence (P11597 whole entry): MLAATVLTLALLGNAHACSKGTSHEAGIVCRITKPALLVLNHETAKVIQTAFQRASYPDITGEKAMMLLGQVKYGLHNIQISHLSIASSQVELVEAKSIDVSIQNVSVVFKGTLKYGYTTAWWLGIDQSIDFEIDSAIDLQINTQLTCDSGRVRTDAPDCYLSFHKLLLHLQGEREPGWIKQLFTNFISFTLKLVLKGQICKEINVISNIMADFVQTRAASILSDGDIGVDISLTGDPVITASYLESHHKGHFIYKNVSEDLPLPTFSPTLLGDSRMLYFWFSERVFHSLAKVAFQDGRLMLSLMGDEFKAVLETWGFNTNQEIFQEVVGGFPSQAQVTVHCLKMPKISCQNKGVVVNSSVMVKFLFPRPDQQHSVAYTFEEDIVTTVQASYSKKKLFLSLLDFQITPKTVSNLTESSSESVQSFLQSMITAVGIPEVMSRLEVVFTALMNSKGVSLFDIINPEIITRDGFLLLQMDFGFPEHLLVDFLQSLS

[2] = molecular target: T1, Cholesteryl ester transfer protein; assay: Inhibition of CETP in 95% human serum assessed as inhibition of transfer of [3H] cholesteryl oleate or [3H] triolein between LDL and HDL; assay type: cell-free
[3] = In vivo inhibition of CETP in cynomolgus-CETP transgenic mouse assessed as increase in plasma HDL-C level at 0.3 mg/kg, po measured after 4 hrs; assay type: functional; design: scale not given: the % may be the effect or the level left
[4] = Plasma concentration in cynomolgus-CETP transgenic mouse at 0.3 mg/kg, po measured after 4 hrs; assay type: ADME, organism-based
[5] = In vivo inhibition of CETP in cynomolgus-CETP transgenic mouse plasma at 0.3 mg/kg, po measured after 4 hrs; assay type: functional
[6] = In vivo inhibition of CETP in cynomolgus-CETP transgenic mouse assessed as increase in plasma HDL-C level at 1 mg/kg, po measured after 4 hrs; assay type: functional; design: scale not given: the % may be the effect or the level left
[7] = Plasma concentration in cynomolgus-CETP transgenic mouse at 1 mg/kg, po measured after 4 hrs; assay type: ADME, organism-based
[8] = In vivo inhibition of CETP in cynomolgus-CETP transgenic mouse plasma at 1 mg/kg, po measured after 4 hrs; assay type: functional

| Structure (SMILES) | pIC50 [1] | pIC50 [2] | also measured |
| --- | --- | --- | --- |
| COc1ccc(-c2ccc(C(=O)O)cc2C)cc1-c1ccc(C(F)(F)F)cc1[C@@H]1CC[C@H]2[C@@H](c3cc(C(F)(F)F)cc(C(F)(F)F)c3)NC(=O)N12 | 6.42 |  |  |
| COc1ccc(-c2cccnc2C)cc1-c1ccc(C(F)(F)F)cc1[C@@H]1CC[C@H]2[C@@H](c3cc(C(F)(F)F)cc(C(F)(F)F)c3)NC(=O)N12 | 6.82 |  |  |
| COc1ccc([C@H]2CC[C@H](C(=O)O)CC2)cc1-c1ccc(C(F)(F)F)cc1[C@@H]1CC[C@H]2[C@@H](c3cc(C(F)(F)F)cc(C(F)(F)F)c3)NS(=O)(=O)N12 | 6.40 | 5.57 |  |
| COc1ccc(-c2ccc(C(=O)O)nc2C)cc1-c1ccc(C(F)(F)F)cc1[C@@H]1CC[C@H]2[C@@H](c3cc(C(F)(F)F)cc(C(F)(F)F)c3)NC(=O)N12 | 6.33 |  |  |
| COc1ncc(-c2ccc(C(=O)O)cc2C)cc1-c1ccc(C(F)(F)F)cc1[C@@H]1CC[C@H]2[C@@H](c3cc(C(F)(F)F)cc(C(F)(F)F)c3)N(C)C(=O)N12 | 6.61 |  |  |
| COc1ncc(-c2c(C)cc(C(=O)O)cc2C)cc1-c1ccc(C(F)(F)F)cc1[C@@H]1CC[C@H]2[C@@H](c3cc(C(F)(F)F)cc(C(F)(F)F)c3)NC(=O)N12 | 6.98 |  |  |
| COc1ccc([C@H]2CC[C@H](C(=O)O)CC2)cc1-c1ccc(C(F)(F)F)cc1[C@@H]1CC[C@H]2[C@@H](c3cc(C(F)(F)F)cc(C(F)(F)F)c3)NC(=O)N12 | 5.95 | 5.76 |  |
| COc1ncc(-c2c(C)cc(C(=O)NC3(C#N)CC3)cc2C)cc1-c1ccc(C(F)(F)F)cc1[C@@H]1CC[C@H]2[C@@H](c3cc(C(F)(F)F)cc(C(F)(F)F)c3)NC(=O)N12 | 7.26 | 7.02 | Activity [6]: 30%; concentration at 4 h [7]: 1000 nM; inhibition in vivo at 1 mg/kg [8]: 67% |
| COc1ccc(-c2ccc(C(=O)O)cc2C)cc1-c1ccc(C(F)(F)F)cc1[C@@H]1CC[C@H]2[C@@H](c3cc(C(F)(F)F)cc(C(F)(F)F)c3)NS(=O)(=O)N12 | 6.87 |  |  |
| COc1ccc(CCC(=O)O)cc1-c1ccc(C(F)(F)F)cc1[C@@H]1CC[C@H]2[C@@H](c3cc(C(F)(F)F)cc(C(F)(F)F)c3)NC(=O)N12 | 6.26 |  |  |
| COc1ccc(-c2ccc(C(=O)O)cc2C)cc1-c1cnc(C(F)(F)F)cc1[C@@H]1CC[C@H]2[C@@H](c3cc(C(F)(F)F)cc(C(F)(F)F)c3)NC(=O)N12 | 6.26 |  |  |
| COc1ccc(-c2ccc(C(=O)O)cc2C)cc1-c1ccc(C(F)(F)F)cc1[C@@H]1CC[C@H]2[C@@H](c3cc(C(F)(F)F)cc(C(F)(F)F)c3)N(C)C(=O)N12 | 6.38 |  |  |

Further lines, with some results ahead:

| pIC50 [1] | pIC50 [2] | Structure (SMILES) | also measured |
| --- | --- | --- | --- |
| 5.56 | < 5.00 | COc1cc(F)c(C(C)C)cc1-c1ccc(C(F)(F)F)cc1CN1C(=O)N[C@H](c2cc(C(F)(F)F)cc(C(F)(F)F)c2)[C@@H]1C |  |
| 7.55 | 6.89 | COc1ncc(-c2ccc(C(=O)O)cc2C)cc1-c1ccc(C(F)(F)F)cc1CN1C(=O)N(C)[C@H](c2cc(C(F)(F)F)cc(C(F)(F)F)c2)[C@@H]1C | Activity [3]: 51%; concentration at 4 h [4]: 630 nM; inhibition in vivo at 0.3 mg/kg [5]: 77% |
| 7.42 | 6.40 | COc1ncc(-c2ccc(C(=O)O)cc2C)cc1-c1ccc(C(F)(F)F)cc1CN1C(=O)N[C@H](c2cc(C(F)(F)F)cc(C(F)(F)F)c2)[C@@H]1C |  |
| 7.43 | 6.47 | COc1ccc(-c2ccc(C(=O)O)cc2C)cc1-c1ccc(C(F)(F)F)cc1CN1C(=O)N[C@H](c2cc(C(F)(F)F)cc(C(F)(F)F)c2)[C@@H]1C | Activity [6]: 101%; concentration at 4 h [7]: 700 nM; inhibition in vivo at 1 mg/kg [8]: 87% |
| 7.74 | 6.35 | COc1ccc(-c2ccc(C(=O)O)cc2C)cc1-c1ccc(C(F)(F)F)nc1CN1C(=O)N[C@H](c2cc(C(F)(F)F)cc(C(F)(F)F)c2)[C@@H]1C | Activity [6]: 86%; concentration at 4 h [7]: 830 nM; inhibition in vivo at 1 mg/kg [8]: 89% |
| 6.97 | 6.52 | COc1ncc(-c2ccc(C(=O)O)cc2C)cc1-c1ccc(C(F)(F)F)cc1[C@@H]1CC[C@H]2[C@@H](c3cc(C(F)(F)F)cc(C(F)(F)F)c3)NC(=O)N12 | Activity [3]: 58%; concentration at 4 h [4]: 550 nM; inhibition in vivo at 0.3 mg/kg [5]: 32% |
| 7.77 | 6.44 | COc1ncc(-c2ccc(C(=O)O)cc2C)cc1-c1ccc(C(F)(F)F)nc1CN1C(=O)N[C@H](c2cc(C(F)(F)F)cc(C(F)(F)F)c2)[C@@H]1C | Activity [6]: 139%; concentration at 4 h [7]: 1260 nM; inhibition in vivo at 1 mg/kg [8]: 87% |
